Target: T1, human DLK (Homo sapiens, UniProt Q12852)
T1 sequence (Q12852 1-859): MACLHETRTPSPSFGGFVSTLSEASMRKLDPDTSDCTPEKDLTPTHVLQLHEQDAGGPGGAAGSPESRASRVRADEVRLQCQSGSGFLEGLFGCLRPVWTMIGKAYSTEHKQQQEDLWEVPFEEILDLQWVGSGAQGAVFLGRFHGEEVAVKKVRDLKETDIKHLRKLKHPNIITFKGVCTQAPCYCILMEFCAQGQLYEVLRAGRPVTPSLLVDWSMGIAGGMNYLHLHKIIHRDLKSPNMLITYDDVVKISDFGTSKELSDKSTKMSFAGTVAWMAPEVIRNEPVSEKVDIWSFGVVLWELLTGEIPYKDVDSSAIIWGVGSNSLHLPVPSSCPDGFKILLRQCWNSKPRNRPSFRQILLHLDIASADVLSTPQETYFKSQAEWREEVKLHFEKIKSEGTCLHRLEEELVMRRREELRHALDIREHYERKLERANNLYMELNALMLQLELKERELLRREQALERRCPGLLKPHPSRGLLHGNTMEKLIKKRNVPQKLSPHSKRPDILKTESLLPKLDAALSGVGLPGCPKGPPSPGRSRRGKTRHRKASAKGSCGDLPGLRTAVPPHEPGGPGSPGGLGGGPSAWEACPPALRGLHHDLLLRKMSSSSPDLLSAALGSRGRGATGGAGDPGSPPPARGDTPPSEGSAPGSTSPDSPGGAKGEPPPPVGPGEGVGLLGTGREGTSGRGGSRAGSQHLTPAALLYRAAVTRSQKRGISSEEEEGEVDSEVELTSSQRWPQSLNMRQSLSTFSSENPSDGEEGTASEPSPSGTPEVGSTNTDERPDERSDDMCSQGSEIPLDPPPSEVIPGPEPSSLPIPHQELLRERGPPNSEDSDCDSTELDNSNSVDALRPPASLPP
Assay: DLK Kd Determinations (KINOMEscan KdELECT, DiscoveRx)
Set-up: full length of human DLK (amino acids 1-859); host or cells: transiently transfected HEK293 cells; unpurified extract
Details: fusion protein of full length human DLK (amino acids 1-859) and NFkB DNA binding domain; qPCR readout; duplicate
Description: The DLK dissociation constants (Kd) have been determined in the KINOMEscan KdELECT Service at DiscoveRx.
A fusion protein of full length of human DLK (amino acids 1-859) and the DNA binding domain of NFkB was expressed in transiently transfected HEK293 cells. From these HEK 293 cells, extracts were prepared in M-PER extraction buffer (Pierce) in the presence of Protease Inhibitor Cocktail Complete (Roche) and Phosphatase Inhibitor Cocktail Set II (Merck) per manufacturers' instructions. The DLK fusion protein was labeled with a chimeric double-stranded DNA tag containing the NFkB binding site (5′-GGGAATTCCC-3′) fused to an amplicon for qPCR readout, which was added directly to the expression extract (the final concentration of DNA-tag in the binding reaction is 0.1 nM).
Streptavidin-coated magnetic beads (Dynal M280) were treated with a biotinylated small molecule ligand for 30 minutes at room temperature to generate affinity resins the binding assays. The liganded beads were blocked with excess biotin and washed with blocking buffer (SeaBlock (Pierce), 1% BSA, 0.05% Tween 20, 1 mM DTT) to remove unbound ligand and to reduce nonspecific binding.
Extracts were used directly in binding assays without any enzyme purification steps at a ≧10,000-fold overall stock dilution (final DNA-tagged enzyme concentration <0.1 nM). Extracts were loaded with DNA-tag and diluted into the binding reaction in a two step process. First extracts were diluted 1:100 in 1× binding buffer (PBS/0.05% Tween 20/10 mM DTT/0.1% BSA/2 μg/ml sonicated salmon sperm DNA) containing 10 nM DNA-tag. This dilution was allowed to equilibrate at room temperature for 15 minutes and then subsequently diluted 1:100 in 1× binding buffer. Test compounds were prepared as 111× stocks in 100% DMSO. Kds were determined using an 11-point 3-fold compound dilution series with three DMSO control points. All compounds for Kd measurements are distributed by acoustic transfer (non-contact dispensing) in 100% DMSO. The compounds were then diluted directly into the assays such that the final concentration of DMSO was 0.9%. All reactions performed in polypropylene 384-well plates. Each was a final volume of 0.02 mL. Assays were incubated with shaking for 1 hour at room temperature. Then the beads were pelleted and washed with wash buffer (1×PBS, 0.05% Tween 20) to remove displaced kinase and test compound. The washed based were re-suspended in elution buffer (1×PBS, 0.05% Tween 20, 0.5 μM non-biotinylated affinity ligand) and incubated at room temperature with shaking for 30 minutes. The kinase concentration in the eluates was measured by qPCR. qPCR reactions were assembled by adding 2.5 μL of kinase eluate to 7.5 μL of qPCR master mix containing 0.15 μM amplicon primers and 0.15 μM amplicon probe. The qPCR protocol consisted of a 10 minute hot start at 95° C., followed by 35 cycles of 95° C. for 15 seconds, 60° C. for 1 minute.
Test compounds were prepared as 111× stocks in 100% DMSO. Kds were determined using an 11-point 3-fold compound dilution series with three DMSO control points. All compounds for Kd measurements are distributed by acoustic transfer (non-contact dispensing) in 100% DMSO. The compounds were then diluted directly into the assays such that the final concentration of DMSO was 0.9%. The Kds were determined using a compound top concentration of 30,000 nM. Kd measurements were performed in duplicate.
Binding constants (Kds) were calculated with a standard dose-response curve using the Hill equation: […]
The Hill Slope was set to −1. Curves were fitted using a non-linear least square fit with the Levenberg-Marquardt algorithm (Levenberg, K., A method for the solution of certain non-linear problems in least squares, Q. Appl. Math. 2, 164-168 (1944)). See also Fabian, M. A. et al. A small molecule-kinase interaction map for clinical kinase inhibitors. Nat. Biotechnol. […]

SMILES | Kd
Nc1ncc(-c2cn([C@H]3[C@@H]4CN(CC(F)F)C[C@@H]43)c(CC3CC3)n2)cc1OC(F)(F)F [Example 98, 5-(2-(cyclopropylmethyl)-1-((1R,5S,6s)-3-(2,2-difluoroethyl)-3-azabicyclo[3.1.0]hexan-6-yl)-1H-imidazol-4-yl)-3-(trifluoromethoxy)pyridin-2-amine] | 0.093 µM
Nc1ncc(-c2cn([C@H]3[C@@H]4CNC[C@@H]43)c(CC3CC3)n2)cc1OC(F)F [Example 86, 5-(1-((1R,5S,6s)-3-azabicyclo[3.1.0]hexan-6-yl)-2-(cyclopropylmethyl)-1H-imidazol-4-yl)-3-(difluoromethoxy)pyridin-2-amine] | 0.11 µM
COCCN1C[C@@H]2[C@H](C1)[C@H]2n1cc(-c2cnc(N)c(OC(F)F)c2)nc1C(C)C [Example 55, 3-(difluoromethoxy)-5-(2-isopropyl-1-((1R,5S,6s)-3-(2-methoxyethyl)-3-azabicyclo[3.1.0]hexan-6-yl)-1H-imidazol-4-yl)pyridin-2-amine] | 0.24 µM
CC(C)c1nc(-c2cnc(N)c(C(F)(F)F)c2)cn1Cc1cccnc1 [Example 32, 5-(2-isopropyl-1-(pyridin-3-ylmethyl)-1H-imidazol-4-yl)-3-(trifluoromethyl)pyridin-2-amine] | 0.94 µM
Nc1ncc(-c2cn([C@H]3[C@@H]4CN(CC(F)F)C[C@@H]43)c(CC(F)(F)F)n2)cc1C(F)(F)F [Example 122, 5-(1-((1R,5S,6s)-3-(2,2-difluoroethyl)-3-azabicyclo[3.1.0]hexan-6-yl)-2-(2,2,2-trifluoroethyl)-1H-imidazol-4-yl)-3-(trifluoromethyl)pyridin-2-amine] | 0.12 µM
Nc1ncc(-c2cn([C@H]3[C@@H]4CNC[C@@H]43)c(C3CC3)n2)cc1OC(F)F [Example 96, 5-(1-((1R,5S,6s)-3-azabicyclo[3.1.0]hexan-6-yl)-2-cyclopropyl-1H-imidazol-4-yl)-3-(difluoromethoxy)pyridin-2-amine] | 0.053 µM
Nc1ncc(-c2cn([C@H]3[C@@H]4CN(CC(F)F)C[C@@H]43)c(C3CC3)n2)cc1C(F)(F)F [Example 75, 5-(2-cyclopropyl-1-((1R,5S,6s)-3-(2,2-difluoroethyl)-3-azabicyclo[3.1.0]hexan-6-yl)-1H-imidazol-4-yl)-3-(trifluoromethyl)pyridin-2-amine] | 0.056 µM
CC(C)c1nc(-c2cnc(N)c(OC(F)F)c2)cn1[C@H]1[C@@H]2CNC[C@@H]21 [Example 50, 5-(1-((1R,5S,6s)-3-azabicyclo[3.1.0]hexan-6-yl)-2-isopropyl-1H-imidazol-4-yl)-3-(difluoromethoxy)pyridin-2-amine] | 0.17 µM
CC(C)c1nc(-c2cnc(N)c(OC(F)(F)F)c2)cn1[C@H]1[C@@H]2CN(CC(F)(F)F)C[C@@H]21 [Example 110, 5-(2-isopropyl-1-((1R,5S,6s)-3-(2,2,2-trifluoroethyl)-3-azabicyclo[3.1.0]hexan-6-yl)-1H-imidazol-4-yl)-3-(trifluoromethoxy)pyridin-2-amine] | 0.28 µM
COCCN1C[C@@H]2[C@H](C1)[C@H]2n1cc(-c2cnc(N)c(C(F)(F)F)c2)nc1C(C)C [Example 15, 5-(2-isopropyl-1-((1R,5S,6s)-3-(2-methoxyethyl)-3-azabicyclo[3.1.0]hexan-6-yl)-1H-imidazol-4-yl)-3-(trifluoromethyl)pyridin-2-amine] | 0.21 µM
Nc1ncc(-c2cn([C@H]3[C@@H]4CN(CC(F)(F)F)C[C@@H]43)c(CC3CC3)n2)cc1C(F)(F)F [Example 79, 5-(2-(cyclopropylmethyl)-1-((1R,5S,6s)-3-(2,2,2-trifluoroethyl)-3-azabicyclo[3.1.0]hexan-6-yl)-1H-imidazol-4-yl)-3-(trifluoromethyl)pyridin-2-amine] | 0.18 µM
CC(C)c1nc(-c2cnc(N)c(C(F)(F)F)c2)cn1[C@H]1[C@@H]2CC(N3CCOCC3)C[C@@H]21 (mixture of isomers) [Example 3, 5-(2-isopropyl-1-((1R,5S,6r)-3-morpholinobicyclo[3.1.0]hexan-6-yl)-1H-imidazol-4-yl)-3-(trifluoromethyl)pyridin-2-amine] | 0.051 µM

More lines, in order of falling Kd, values ahead:

Kd | SMILES
0.51 µM | Nc1ncc(-c2cn([C@H]3[C@@H]4CN(CC(F)(F)F)C[C@@H]43)c(C3CC3)n2)cc1OC(F)(F)F [Example 70, 5-(2-cyclopropyl-1-((1R,5S,6s)-3-(2,2,2-trifluoroethyl)-3-azabicyclo[3.1.0]hexan-6-yl)-1H-imidazol-4-yl)-3-(trifluoromethoxy)pyridin-2-amine]
0.29 µM | Nc1ncc(-c2cn([C@H]3[C@@H]4CN(CC(F)F)C[C@@H]43)c(CC3CC3)n2)cc1OC(F)F [Example 89, 5-(2-(cyclopropylmethyl)-1-((1R,5S,6s)-3-(2,2-difluoroethyl)-3-azabicyclo[3.1.0]hexan-6-yl)-1H-imidazol-4-yl)-3-(difluoromethoxy)pyridin-2-amine]
0.28 µM | Nc1ncc(-c2cn([C@H]3[C@@H]4CN(CC(F)(F)F)C[C@@H]43)c(CC3CC3)n2)cc1OC(F)F [Example 102, 5-(2-(cyclopropylmethyl)-1-((1R,5S,6s)-3-(2,2,2-trifluoroethyl)-3-azabicyclo[3.1.0]hexan-6-yl)-1H-imidazol-4-yl)-3-(difluoromethoxy)pyridin-2-amine]
0.11 µM | Nc1ncc(-c2cn([C@H]3[C@@H]4CN(C5COC5)C[C@@H]43)c(CC3CC3)n2)cc1OC(F)F [Example 87, 5-(2-(cyclopropylmethyl)-1-((1R,5S,6s)-3-(oxetan-3-yl)-3-azabicyclo[3.1.0]hexan-6-yl)-1H-imidazol-4-yl)-3-(difluoromethoxy)pyridin-2-amine]
0.066 µM | Nc1ncc(-c2cn([C@H]3[C@@H]4CN(C5COC5)C[C@@H]43)c(C3CC3)n2)cc1OC(F)F [Example 104, 5-(2-cyclopropyl-1-((1R,5S,6s)-3-(oxetan-3-yl)-3-azabicyclo[3.1.0]hexan-6-yl)-1H-imidazol-4-yl)-3-(difluoromethoxy)pyridin-2-amine]
0.047 µM | CC(C)c1nc(-c2cnc(N)c(C(F)(F)F)c2)cn1[C@H]1[C@@H]2CN(C3COC3)C[C@@H]21 [Example 12, 5-(2-isopropyl-1-((1R,5S,6s)-3-(oxetan-3-yl)-3-azabicyclo[3.1.0]hexan-6-yl)-1H-imidazol-4-yl)-3-(trifluoromethyl)pyridin-2-amine]

Reference: patent publication US20180057507A1, “INHIBITORS OF DUAL LEUCINE ZIPPER (DLK) KINASE FOR THE TREATMENT OF DISEASE” (Board of Regents, The University of Texas System, priority 2016, published 2018)
